Results as given in paper PMC11189301, “Structure of the human outer kinetochore KMN network complex” (Nature Structural & Molecular Biology, 2024).

Legend:
Wild-type MIS12C = assay: Analytical size-exclusion chromatography (SEC), CENP-C^1–71 binding to wild-type MIS12C; design: species or system Homo sapiens; conditions: 4 µM CENP-C^1–71-MBP + 4 µM wild-type MIS12C; 20 mM HEPES pH 7.8, 150 mM NaCl, 0.5 mM TCEP; Superdex S200; SDS-PAGE; at least two repeats
Method: (§1) Four micromolar of CENP-C^1–71-MBP was mixed with 4 µM of either wild-type MIS12C or three mutants (MIS12C^ΔN-Dsn1, MIS12^Dsn1-W96A R97A R98A, MIS12C^Dsn1-S100D S109D) in a buffer of 20 mM HEPES (pH 7.8), 150 mM NaCl and 0.5 mM TCEP, and 50 µl of the mixture was loaded onto a Superdex S200 size-exclusion column (Cytiva).
(§2) Coloured by pLDDT score. e AlphaFold2 Multimer prediction of the K. lactis MIS12C coloured by subunit with insert highlighting conservation of the auto-inhibitory Dsn1^N mechanism. Source data

[1] = tested on: MIS12^Dsn1-W96A R97A R98A; assay: Analytical SEC, CENP-C^1–71 binding to MIS12C with WRR linchpin substitutions; design: species or system Homo sapiens; conditions: 4 µM CENP-C^1–71-MBP + 4 µM MIS12^Dsn1-W96A R97A R98A; 20 mM HEPES pH 7.8, 150 mM NaCl, 0.5 mM TCEP; Superdex S200; SDS-PAGE; at least two repeats
Method: as §1, §2

MIS12C = conditions: cited from earlier work
From the text: We used isothermal titration calorimetry (ITC) to test this structural model by measuring the affinities of MIS12C for both a peptide modeled on CENP-C and a Dsn1^N auto-inhibitory peptide, including structure-guided interface mutants (Fig. 2g and Extended Data Fig. 4). […] Deletion of Dsn1^N (residues 6–113; MIS12C ...

Row | CENP-C^1–71 binding by SEC, in words (Wild-type MIS12C) | CENP-C^1–71 binding by SEC, in words [1] | Substance | increase in affinity of MIS12C for residues 1–21 of CENP-C on deleting a ten-residue segment of Dsn1 incorporating Ser100 and Ser109 (MIS12C) [fold]
1 | only partially bound | binding of almost all CENP-C | CENP-C^1–71: CENP-C residues 1–71 fused to a C-terminal maltose-binding protein (MBP) tag, expressed in E. coli | 
2 |  |  | residues 1–21 of CENP-C: residues 1–21 of CENP-C, prior data of ref 10 | 90
